According to ChEMBL document CHEMBL5500356, “Design, synthesis, and biological evaluation of novel benzimidazole derivatives as anti-cervical cancer agents through PI3K/Akt/mTOR pathway and tubulin inhibition” (Eur J Med Chem, 2024):
Calls of active or inactive are those of the source. The rule behind the calls is not given here.

Experiments:
SiHa [1] = test: Induction of cell cycle arrest in human SiHa cells assessed as accumulation cells at S phase at 4 uM measured after 24 hrs by flow cytometry (reference value: 14.31%); type: functional
SiHa [2] = test: Induction of cell cycle arrest in human SiHa cells assessed as accumulation cells at G2/M phase at 8 uM measured after 24 hrs by flow cytometry (reference value: 5.24%); type: functional
Ca-Ski = test: Antiproliferative activity against human Ca-Ski cells assessed as cell viability incubated for 48 hrs by MTT assay; type: functional, cell-based
[3] = Acute toxicity in AB-wild type zebrafish embryo assessed as malformation rate at 400 uM measured after 96 hrs; set-up: species or system Danio rerio; details: in vivo
SiHa [4] = test: Antiproliferative activity against human SiHa cells assessed as cell viability incubated for 48 hrs by MTT assay; type: functional, cell-based
[5] = Acute toxicity in AB-wild type zebrafish embryo assessed as malformation rate at 12.5 uM measured after 96 hrs; set-up: species or system Danio rerio; details: in vivo
[6] = Acute toxicity in AB-wild type zebrafish embryo assessed as mortalities at 100 uM measured after 96 hrs; set-up: species or system Danio rerio; details: in vivo, read-out: Activity
SiHa [7] = test: Effect on mTOR protein expression in human SiHa cells at 4 to 16 uM incubated for 24 hrs by Western blot analysis; type: functional, cell-based; details: dose 4-16 µM
SiHa [8] = test: Induction of cell cycle arrest in human SiHa cells assessed as accumulation cells at S phase at 8 uM measured after 24 hrs by flow cytometry (reference value: 14.31%); type: functional
[9] = molecular target: RAC-alpha serine/threonine-protein kinase (Homo sapiens) (UniProt P31749); test: Inhibition of Akt phosphorylation in human SiHa cells at 4 to 16 uM incubated for 24 hrs by Western blot analysis; type: cell-based; details: dose 4-16 µM
Chain of RAC-alpha serine/threonine-protein kinase (Homo sapiens) (P31749 whole entry): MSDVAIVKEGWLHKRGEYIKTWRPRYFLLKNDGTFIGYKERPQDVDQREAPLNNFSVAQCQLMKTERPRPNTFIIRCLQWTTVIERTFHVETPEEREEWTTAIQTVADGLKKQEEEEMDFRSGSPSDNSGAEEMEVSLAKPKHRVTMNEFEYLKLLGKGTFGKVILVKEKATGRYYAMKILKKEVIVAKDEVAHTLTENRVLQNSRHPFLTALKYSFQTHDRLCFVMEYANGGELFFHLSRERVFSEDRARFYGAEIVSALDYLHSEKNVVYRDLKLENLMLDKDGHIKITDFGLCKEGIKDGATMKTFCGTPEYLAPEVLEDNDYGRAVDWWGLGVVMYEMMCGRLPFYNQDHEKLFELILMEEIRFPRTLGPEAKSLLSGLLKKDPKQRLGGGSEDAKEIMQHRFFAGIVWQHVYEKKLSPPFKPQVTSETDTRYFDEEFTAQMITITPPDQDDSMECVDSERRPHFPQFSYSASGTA

[10] = Acute toxicity in AB-wild type zebrafish embryo assessed as mortalities at 200 uM measured after 96 hrs; set-up: species or system Danio rerio; details: in vivo, read-out: Activity
SiHa [11] = test: Induction of cell cycle arrest in human SiHa cells assessed as accumulation cells at G2/M phase at 16 uM measured after 24 hrs by flow cytometry (reference value: 5.24%); type: functional
SiHa [12] = test: Induction of apoptosis in human SiHa cells assessed as early apoptotic cells at 4 uM incubated for 24 hr by flow cytometry based annexin V-FITC/PI double-staining analysis (reference value: 2.95%); type: functional
[13] = Acute toxicity in AB-wild type zebrafish embryo assessed as mortalities at 12.5 uM measured after 96 hrs; set-up: species or system Danio rerio; details: in vivo, read-out: Activity
[14] = Acute toxicity in AB-wild type zebrafish embryo assessed as malformation rate at 200 uM measured after 96 hrs; set-up: species or system Danio rerio; details: in vivo
SiHa [15] = test: Effect on Akt protein expression in human SiHa cells at 4 to 16 uM incubated for 24 hrs by Western blot analysis; type: functional, cell-based; details: dose 4-16 µM
SiHa [16] = test: Induction of apoptosis in human SiHa cells assessed as late apoptotic cells at 16 uM incubated for 24 hr by flow cytometry based annexin V-FITC/PI double-staining analysis (reference value: 8.67%); type: functional
[17] = Acute toxicity in AB-wild type zebrafish embryo assessed as malformation rate at 100 uM measured after 96 hrs; set-up: species or system Danio rerio; details: in vivo
SiHa [18] = test: Inhibition of PI3K phosphorylation in human SiHa cells at 4 to 16 uM incubated for 24 hrs by Western blot analysis; type: cell-based; details: dose 4-16 µM
[19] = Acute toxicity in AB-wild type zebrafish embryo assessed as mortalities at 25 uM measured after 96 hrs; set-up: species or system Danio rerio; details: in vivo, read-out: Activity
HeLa = test: Antiproliferative activity against human HeLa cells assessed as cell viability incubated for 48 hrs by MTT assay; type: functional, cell-based
[20] = Acute toxicity in AB-wild type zebrafish embryo assessed as mortalities at 50 uM measured after 96 hrs; set-up: species or system Danio rerio; details: in vivo, read-out: Activity
[21] = Acute toxicity in AB-wild type zebrafish embryo assessed as malformation rate at 25 uM measured after 96 hrs; set-up: species or system Danio rerio; details: in vivo
SiHa [22] = test: Induction of apoptosis in human SiHa cells assessed as early apoptotic cells at 8 uM incubated for 24 hr by flow cytometry based annexin V-FITC/PI double-staining analysis (reference value: 2.95%); type: functional
SiHa [23] = test: Induction of cell cycle arrest in human SiHa cells assessed as accumulation cells at G2/M phase at 4 uM measured after 24 hrs by flow cytometry (reference value: 5.24%); type: functional
Tubulin (Homo sapiens) [24] = molecular target: T1, Tubulin (Homo sapiens) (UniProt P68371+Q9H4B7+P0DPH7+P68366+Q13509+Q71U36+P04350+Q3ZCM7+P07437+P68363+Q9BQE3+Q6PEY2+Q13885+Q9BVA1+Q9BUF5); test: Inhibition of tubulin formation in human SiHa cells incubated for 24 hrs by Western blot analysis; type: cell-based
SiHa [25] = test: Induction of apoptosis in human SiHa cells assessed as early apoptotic cells at 16 uM incubated for 24 hr by flow cytometry based annexin V-FITC/PI double-staining analysis (reference value: 2.95%); type: functional
SiHa [26] = test: Induction of cell cycle arrest in human SiHa cells assessed as accumulation cells at G0/G1 phase at 16 uM measured after 24 hrs by flow cytometry (reference value: 80.45%); type: functional
[27] = molecular target: Serine/threonine-protein kinase mTOR (Homo sapiens) (UniProt P42345); test: Inhibition of mTOR phosphorylation in human SiHa cells at 4 to 16 uM incubated for 24 hrs by Western blot analysis; type: cell-based; details: dose 4-16 µM
SiHa [28] = test: Effect on PI3K protein expression in human SiHa cells at 4 to 16 uM incubated for 24 hrs by Western blot analysis; type: functional, cell-based; details: dose 4-16 µM
SiHa [29] = test: Induction of cell cycle arrest in human SiHa cells assessed as accumulation cells at G0/G1 phase at 4 uM measured after 24 hrs by flow cytometry (reference value: 80.45%); type: functional
[30] = Cytotoxicity against human HEK293T cells assessed as cell viability incubated for 48 hrs by MTT assay; type: toxicity, cell-based, HEK-293T
Tubulin (Homo sapiens) [31] = molecular target: T1, Tubulin (Homo sapiens); test: Inhibition of tubulin polymerization in human SiHa cells incubated for 24 hrs by DAPI fluorescence staining assay; type: cell-based; details: dose 4-16 µM
[32] = Acute toxicity in AB-wild type zebrafish embryo assessed as mortalities at 400 uM measured after 96 hrs; set-up: species or system Danio rerio; details: in vivo, read-out: Activity
SiHa [33] = test: Induction of cell cycle arrest in human SiHa cells assessed as accumulation cells at G0/G1 phase at 8 uM measured after 24 hrs by flow cytometry (reference value: 80.45%); type: functional
[34] = Cytotoxicity against human L02 cells assessed as cell viability incubated for 48 hrs by MTT assay; type: toxicity, cell-based
SiHa [35] = test: Induction of apoptosis in human SiHa cells assessed as late apoptotic cells at 8 uM incubated for 24 hr by flow cytometry based annexin V-FITC/PI double-staining analysis (reference value: 8.67%); type: functional
SiHa [36] = test: Induction of apoptosis in human SiHa cells assessed as late apoptotic cells at 4 uM incubated for 24 hr by flow cytometry based annexin V-FITC/PI double-staining analysis (reference value: 8.67%); type: functional
[37] = Acute toxicity in AB-wild type zebrafish embryo assessed as malformation rate at 50 uM measured after 96 hrs; set-up: species or system Danio rerio; details: in vivo
SiHa [38] = test: Induction of cell cycle arrest in human SiHa cells assessed as accumulation cells at S phase at 16 uM measured after 24 hrs by flow cytometry (reference value: 14.31%); type: functional

With COc1cc(-c2nc3cc(N4CCN(C)CC4)c(C#Cc4ccccc4F)cc3[nH]2)cc(OC)c1OC the Activity (SiHa [1]) was 9.89%, the Activity (SiHa [2]) was 8.92% and the IC50 (Ca-Ski) was 7.24 µM. It also gave an Activity [3] of 0%, an IC50 (SiHa [4]) of 3.38 µM and an Activity [5] of 0%. For the same compound, the mortality at 96 h, 100 µM [6] was 0%, the Activity (SiHa [7]) was “inactive” and the Activity (SiHa [8]) was 8.71%. For the same compound, the inhibition [9] was “Active”, the mortality at 96 h, 200 µM [10] was 0% and the Activity (SiHa [11]) was 28.37%. For the same compound, the Activity (SiHa [12]) was 8.55%, the mortality at 96 h, 12.5 µM [13] was 0% and the Activity [14] was 0%. The Activity (SiHa [15]) was “inactive”, the Activity (SiHa [16]) was 15.86% and the Activity [17] was 0%. The inhibition (SiHa [18]) was “Active”, the mortality at 96 h, 25 µM [19] was 0% and the IC50 (HeLa) was 5.03 µM. The mortality at 96 h, 50 µM [20] was 0%, the Activity [21] was 0% and the Activity (SiHa [22]) was 66.56%. For the same compound, the Activity (SiHa [23]) was 7.26%, the inhibition (Tubulin (Homo sapiens) [24]) was “Dose-Dependent Effect” and the Activity (SiHa [25]) was 82.7%. For the same compound, the Activity (SiHa [26]) was 55.29%, the inhibition [27] was “Active” and the Activity (SiHa [28]) was “inactive”. The Activity (SiHa [29]) was 82.4%, the IC50 at 48 h [30] was 24 µM and the inhibition (Tubulin (Homo sapiens) [31]) was “Dose-Dependent Effect”. The mortality at 96 h, 400 µM [32] was 0%, the Activity (SiHa [33]) was 82.37% and the IC50 at 48 h [34] was 21.1 µM. The Activity (SiHa [35]) was 16.43%, the Activity (SiHa [36]) was 8.49% and the Activity [37] was 0%. It also gave an Activity (SiHa [38]) of 16.33%.
